According to the supplement of paper PMC5580409:

Test system: Plasmodium falciparum 3D7
Assay: pEC50, asexual blood-stage growth inhibition
Details: 72 h
Method: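 Held-out test set measured in the Guy lab in 2014 with the same procedure as the primary St. Jude screen. P. falciparum 3D7 blood-stage culture (2% hematocrit, 1% parasitemia) was treated with compound for 72 h at 37 °C, and growth was read by SYBR Green I fluorescence. EC50 came from a four-parameter Hill fit over a 10-point dilution series […].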

Compound | pEC50
CCN(CC)CCn1c(=N)n(CC(O)COc2ccccc2)c2ccccc21 (stereo unspecified) | < 4.82
CCOc1cc(C2C(C(=O)OCCOc3ccccc3)=C(C)NC3=C2C(=O)CC(c2ccc(Cl)cc2)C3)ccc1O (stereo unspecified) | < 4.82
Cc1cccc(NC(=O)/C=C/c2ccccc2Cl)c1 | < 4.82
CCn1c2ccccc2c2cc(CNC3CCCCC3)ccc21 | < 4.82
COc1cc(C2CC(=O)NC3=C2C(=O)CC(c2ccc(C)cc2)C3)ccc1O (stereo unspecified) | < 4.82
CCOC(=O)c1cccc(NC(=O)CC2C(=O)N(c3ccc(F)cc3)C(=O)N2Cc2ccccn2)c1 (stereo unspecified) | < 4.82
Cc1cccc(C2(c3cccc(C)c3)CC2C(=O)Nc2ccc([N+](=O)[O-])cc2O)c1 (stereo unspecified) | 5.36
CC1=C(C(=O)OCCOc2ccccc2)C(c2cccc(O)c2)C2=C(CC(c3ccc(Cl)cc3)CC2=O)N1 (stereo unspecified) | < 4.82
CCOc1ccc(-c2nonc2NC(=O)c2ccco2)cc1 | 6.71
Cc1onc(-c2c(Cl)cccc2Cl)c1C(=O)Nc1cc(Cl)ccc1Cl | 6.54
Cc1ccc(C)c(NCC(O)Cn2c3ccccc3c3ccccc32)c1 (stereo unspecified) | < 4.82
COc1ccccc1-c1c(C(F)(F)F)oc2c(CN(C)C3CCCCC3)c(O)ccc2c1=O | < 4.82
CCOC(=O)c1ccc(NC(=O)/C=C/c2ccccc2Cl)cc1 | < 4.82
COc1ccc(C2CC(=O)C3=C(C2)NC(=O)CC3c2ccc(Cl)cc2Cl)cc1OC (stereo unspecified) | 5.7
Cc1cccc2c(C(=O)N3CCN(C/C=C/c4ccccc4)CC3)cc(-c3cccnc3)nc12 | < 4.82
OC(CNCc1ccc(-c2ccccc2)cc1)c1ccccc1 (stereo unspecified) | < 4.82
Oc1ccc(Br)cc1CN1CCN(C2CCCCCC2)CC1 | 6.34
CCOc1cc(C2C(C(=O)OCCOC)=C(C)NC3=C2C(=O)CC(c2ccc(Cl)cc2)C3)ccc1O (stereo unspecified) | 5.52
CN1CCN(Cc2c(O)ccc3c(=O)c(-c4cccc5ccccc45)c(C(F)(F)F)oc23)CC1 | < 4.82
COc1ccc(C2CC(=O)NC3=C2C(=O)CC(c2ccc(OC)c(OC)c2)C3)c(OC)c1 (stereo unspecified) | < 4.82
COc1ccccc1-c1c(C(F)(F)F)oc2c(CN3CCCC3)c(O)ccc2c1=O | < 4.82
OC(CNC1CCCCC1)COc1ccc(OCc2ccccc2)cc1 (stereo unspecified) | < 4.82
O=C(Nc1ccc(-c2nc3ccccc3[nH]2)cc1)c1cncc(Br)c1 | 5.35
O=C(Nc1ccncc1)C1CC1c1ccccc1 (stereo unspecified) | < 4.82
COc1ccc(CCNC(=O)c2cn(C3CCCCC3)cc(C(=O)NC(C)(C)C)c2=O)cc1 | 6.95
COc1ccc(CN2CCCn3c4c(c5cc(C)ccc53)CCCC42)cc1 (stereo unspecified) | < 4.82

Compound | pEC50
CCCCN(CCCC)CC(O)COc1ccccc1C (stereo unspecified) | 6.06
Cc1ccc2[nH]c(-c3ccc(Br)cc3)nc2c1 | < 4.82
O=C(Nc1ccc([N+](=O)[O-])cc1O)C1CC1(c1ccccc1)c1ccccc1 (stereo unspecified) | < 4.82
Cc1ccc(OCC(O)Cn2c(=N)n(CCN3CCOCC3)c3ccccc32)cc1 (stereo unspecified) | < 4.82
CCOc1ccc(C(O)Cn2c(=N)n(CCN3CCCCC3)c3ccccc32)cc1 (stereo unspecified) | < 4.82
CN1CCN(CC(O)Cn2c3ccccc3c3cc(Cl)ccc32)CC1 (stereo unspecified) | < 4.82
COc1ccc(Cl)cc1NCC(O)Cn1c2ccccc2c2ccccc21 (stereo unspecified) | < 4.82
COCCOC(=O)C1=C(C)NC2=C(C(=O)CC(c3ccc(OC)cc3)C2)C1c1ccc(Cl)cc1 (stereo unspecified) | 6.17
CCN(CC)CC(O)Cn1c2ccccc2c2ccccc21 (stereo unspecified) | 5.34
CCOC(=O)c1c(C)oc2cc(CN(C)C)c(O)cc12 | 5.29
CCOC(=O)C1=C(C)NC2=C(C(=O)CC(c3ccc(Cl)cc3)C2)C1c1ccc(OCC)cc1 (stereo unspecified) | < 4.82
Nc1ccc(C(=O)Nc2ccc(-c3nc4cc(NC(=O)c5ccc(N)cc5)ccc4[nH]3)cc2)cc1 | < 4.82
CC(Nc1cc(N2CCN(C(=O)c3ccccc3)CC2)ccc1[N+](=O)[O-])c1ccccc1 (stereo unspecified) | 6.18
Cc1ccc(OCC(O)CNC2CCCCC2)cc1 (stereo unspecified) | 5.83
O=C(Cc1ccccc1)Nc1ccc(-c2nc3cc(-c4nc5cc(NC(=O)Cc6ccccc6)ccc5[nH]4)ccc3[nH]2)cc1 | < 4.82
CCOC(=O)C1=C(C)NC2=C(C(=O)CC(c3ccc(OC)cc3)C2)C1c1cc(Br)c(O)c(OC)c1 (stereo unspecified) | 5.3
COc1cc(C2CC(=O)NC3=C2C(=O)CC(c2ccc(F)cc2)C3)c(OC)cc1Br (stereo unspecified) | < 4.82
C=CCN1C(=O)N(c2ccc(Cl)cc2)C(=O)C1CC(=O)Nc1ccc(F)cc1 (stereo unspecified) | < 4.82
Cc1ccc(NCC(O)Cn2c3ccc(Cl)cc3c3cc(Cl)ccc32)cc1 (stereo unspecified) | 5.28
N=c1n(CCN2CCCCC2)c2ccccc2n1CC(O)c1cccc(Br)c1 (stereo unspecified) | 5.73
O=C(Cc1ccccc1)N1CCN(c2ccc([N+](=O)[O-])c(NC3CC3)c2)CC1 | < 4.82
N=c1n(CCN2CCCCC2)c2ccccc2n1CC(O)c1cccc2ccccc12 (stereo unspecified) | 5.49
O=C1CC(c2c(F)cccc2Cl)C2=C(CC(c3ccc(F)cc3)CC2=O)N1 (stereo unspecified) | < 4.82
Cc1ccc(OCC(O)CNC2CCCC2)c(C)c1 (stereo unspecified) | 5.19
O=S(=O)(c1cccc(C(F)(F)F)c1)N1CCC(CO)(Cc2cccc(C(F)(F)F)c2)CC1 | 5.68
